{
  "source": "patent US9518018B2",
  "about": "“3-alkoxy, thioalkyl and amino-4-amino-6-(substituted)picolinates and their use as herbicides” (Dow AgroSciences LLC, priority 2011, dated 2016)",
  "assay_type_in_all_cases": "in vivo",
  "key": {"[1]": {"test_system": "EPHHL: poinsettia, wild (Euphorbia heterophylla)", "assay": "Pre-emergent Test I herbicidal activity", "details": "Table 5, 140 g ai/ha", "from_the_text": "(§1) Seeds of the desired test plant species were planted in a soil matrix prepared by mixing a loam soil (43 percent silt, 19 percent clay, and 38 percent sand, with a pH of about 8.1 and an organic matter content of about 1.5 percent) and sand in a 70 to 30 ratio. The soil matrix was contained in plastic pots with a surface area of 113 square centimeters. When required to ensure good germination and healthy plants, a fungicide treatment and/or other chemical or physical treatment was applied.\n(§2) A weighed amount, determined by the highest rate to be tested, of each test compound was placed in a 25 mL glass vial and was dissolved in 6 mL of a 97:3 v/v (volume/volume) mixture of acetone and DMSO to obtain concentrated stock solutions. […] The stock solutions obtained were diluted with 18 mL of a 0.1% v/v aqueous solution of Tween® 20 surfactant to obtain spray solutions containing the highest application rate. Additional application rates were obtained by serial dilution of 12 mL of the high rate solution into a solution containing 3 mL of 97:3 v/v mixture of acetone and DMSO and 9 mL of the 0.1% v/v aqueous solution of Tween® 20 surfactant to obtain ½×, ¼×, ⅛× and 1/16× rates of the high rate. Compound requirements are based upon a 12 mL application volume at a rate of 187 L/ha. Formulated compounds were applied to the plant material with an overhead Mandel track sprayer equipped with 8002E nozzles calibrated to deliver 187 L/ha over an application area of 0.503 square meters at a spray height of 18 inches ([…]) above the soil surface. Control plants were sprayed in the same manner with the solvent blank.\n(§3) The treated pots and control pots were placed in a greenhouse maintained with an approximate 15 hour photoperiod and temperatures of about 23-29° C. during the day and 22-28° C. during the night. Nutrients and water were added on a regular basis and supplemental lighting was provided with overhead metal halide 1000-Watt lamps as necessary. The water was added by top-irrigation. After 20-22 days, the condition of the test plants that germinated and grew as compared with that of the untreated plants that emerged and grew was determined visually and scored on a scale of 0 to 100 percent where 0 corresponds to no injury and 100 corresponds to complete kill or no emergence."}, "[2]": {"test_system": "AMARE: pigweed, redroot (Amaranthus retroflexus)", "assay": "Pre-emergent Test I herbicidal activity", "details": "Table 5, 140 g ai/ha", "from_the_text": "as §1, §2, §3"}, "[3]": {"test_system": "SETFA: foxtail, giant (Setaria faberi)", "assay": "Pre-emergent Test I herbicidal activity", "details": "Table 5, 140 g ai/ha", "from_the_text": "as §1, §2, §3"}, "ZEAMX: corn (Zea mays)": {"test_system": "ZEAMX: corn (Zea mays)", "assay": "Pre-emergent Test I herbicidal activity", "details": "Table 5, 140 g ai/ha", "from_the_text": "as §1, §2, §3"}, "[4]": {"test_system": "CHEAL: lambsquarters (Chenopodium album)", "assay": "Pre-emergent Test I herbicidal activity", "details": "Table 5, 140 g ai/ha", "from_the_text": "as §1, §2, §3"}, "[5]": {"test_system": "CYPRO = Cyperus rotundus L. (purple nutsedge)", "assay": "In-water applied herbicidal activity in transplanted paddy rice", "details": "21 DAA", "description": "(§4) Rice seeds were planted in Sun Gro MetroMix 306 planting mixture, which typically has a pH of 6.0 to 6.8 and an organic matter content of about 30 percent, in plastic plug trays. Seedlings at the second or third leaf stage of growth were transplanted into 650 mL of mud contained in 960 mL non-perforated plastic pots with a surface area of 86.59 cm^2 four days prior to herbicide application. The paddy was created by filling the 2.5 to 3 cm headspace of the pots with water. When required to ensure good germination and healthy plants, a fungicide treatment and/or other chemical or physical treatment was applied. The plants were grown for 4-14 d in a greenhouse with an approximate 14-h photoperiod which was maintained at about 29° C. during the day and 26° C. during the night. Nutrients were added as Osmocote (17:6:10, Nitrogen:Phosphorus:Potassium (N:P:K)+minor nutrients) at 2 grams (g) per cup. Water was added on a regular basis to maintain the paddy flood, and supplemental lighting was provided with overhead metal halide 1000-Watt lamps as necessary. The plants were employed for testing when they reached the second or third true leaf stage. Treatments consisted of compounds 45, 34, and 66. For technical grade compounds, a weighed amount, determined by the highest rate to be tested, was placed in an individual 120 mL glass vial and was dissolved in 20 mL of acetone to obtain concentrated stock solutions. […] The concentrated stock solutions obtained were diluted with 20 mL of an aqueous mixture containing 2.5% Agri-dex crop oil concentrate (v/v). Applications were made by injecting an appropriate amount of the stock solution into the aqueous layer of the paddy. Control plants were treated in the same manner with the solvent blank. All treated plant material received the same concentration of acetone and crop oil concentrate. The treated plants and control plants were placed in a greenhouse as described above and water was added as needed to maintain a paddy flood. After approximately 3 weeks, the condition of the test plants, compared with that of the untreated plants, was determined visually and scored on a scale of 0 to 100 percent where 0 corresponds to no injury and 100 corresponds to complete kill. By applying the well-accepted probit analysis as described by J. Berkson in Journal of the […], 48, 565 (1953) and by D. Finney in “Probit Analysis” Cambridge University Press (1952) or by plotting the mean data and fitting a logarithmic curve to the portion of the data where there was a dose response using Microsoft Excel®, the above data can be used to calculate GR50 and GR90 values, which are defined as growth reduction factors that correspond to the effective dose of herbicide required to kill or control 50 percent or 90 percent, respectively, of a target plant."}, "[6]": {"test_system": "LEFCH = Leptochloa chinensis (L.) NEES (Chinese sprangletop)", "assay": "In-water applied herbicidal activity in transplanted paddy rice", "details": "21 DAA", "description": "as §4"}, "[7]": {"test_system": "FIMMI = Fimbristylis miliacea (L.) VAHL (globe fringerush)", "assay": "In-water applied herbicidal activity in transplanted paddy rice", "details": "21 DAA", "description": "as §4"}, "[8]": {"test_system": "ECHOR = Echinochloa crus-galli P.B. var. oryzoides (VAS.) OHWI (early watergrass)", "assay": "In-water applied herbicidal activity in transplanted paddy rice", "details": "21 DAA", "description": "as §4"}, "[9]": {"details": "dose to kill or control 50 percent"}, "[10]": {"details": "dose to kill or control 90 percent"}},
  "data": [
    {"smiles": "COc1c(N)cc(-c2ccc(Cl)cc2)nc1C(=O)O", "note": "[Compound 46]", "values": [
      {"measurement": "Visual Growth Reduction (%)-21 Days after Application EPHHL", "setting": "[1]", "value": 100, "unit": "%"},
      {"measurement": "Visual Growth Reduction (%)-21 Days after Application AMARE", "setting": "[2]", "value": 95, "unit": "%"},
      {"measurement": "Visual Growth Reduction (%)-21 Days after Application SETFA", "setting": "[3]", "value": 100, "unit": "%"},
      {"measurement": "Visual Growth Reduction (%)-21 Days after Application ZEAMX", "setting": "ZEAMX: corn (Zea mays)", "value": 0, "unit": "%"},
      {"measurement": "Visual Growth Reduction (%)-21 Days after Application CHEAL", "setting": "[4]", "value": 95, "unit": "%"}
    ]},
    {"smiles": "COc1c(C(=O)OCc2ccccc2)nc(-c2ccc(Cl)c(OC)c2F)c(F)c1N", "note": "[Compound 66, benzyl 4-amino-6-(4-chloro-2-fluoro-3-methoxyphenyl)-5-fluoro-3-methoxypicolinate]", "values": [
      {"measurement": "Mean Visual Injury (%)-21 Days After Application CYPRO", "setting": "[5]; 4.38 g ae/ha", "value": 65, "unit": "%"},
      {"measurement": "Mean Visual Injury (%)-21 Days After Application CYPRO", "setting": "[5]; 8.75 g ae/ha", "value": 100, "unit": "%"},
      {"measurement": "Mean Visual Injury (%)-21 Days After Application CYPRO", "setting": "[5]; 17.5 g ae/ha", "value": 100, "unit": "%"},
      {"measurement": "Mean Visual Injury (%)-21 Days After Application CYPRO", "setting": "[5]; 35 g ae/ha", "value": 100, "unit": "%"},
      {"measurement": "Mean Visual Injury (%)-21 Days After Application CYPRO", "setting": "[5]; 70 g ae/ha", "value": 100, "unit": "%"},
      {"measurement": "GR50 CYPRO", "setting": "[5]; [9]", "value": "<4.38", "unit": "g ae/ha"},
      {"measurement": "GR90 CYPRO", "setting": "[5]; [10]", "value": 7.2, "unit": "g ae/ha"},
      {"measurement": "Mean Visual Injury (%)-21 Days After Application LEFCH", "setting": "[6]; 2.19 g ae/ha", "value": 0, "unit": "%"},
      {"measurement": "Mean Visual Injury (%)-21 Days After Application LEFCH", "setting": "[6]; 4.38 g ae/ha", "value": 0, "unit": "%"},
      {"measurement": "Mean Visual Injury (%)-21 Days After Application LEFCH", "setting": "[6]; 8.75 g ae/ha", "value": 0, "unit": "%"},
      {"measurement": "Mean Visual Injury (%)-21 Days After Application LEFCH", "setting": "[6]; 17.5 g ae/ha", "value": 0, "unit": "%"},
      {"measurement": "Mean Visual Injury (%)-21 Days After Application LEFCH", "setting": "[6]; 35 g ae/ha", "value": 16, "unit": "%"},
      {"measurement": "Mean Visual Injury (%)-21 Days After Application LEFCH", "setting": "[6]; 70 g ae/ha", "value": 100, "unit": "%"},
      {"measurement": "GR50 LEFCH", "setting": "[6]; [9]", "value": 40.9, "unit": "g ae/ha"},
      {"measurement": "GR90 LEFCH", "setting": "[6]; [10]", "value": 71.2, "unit": "g ae/ha"},
      {"measurement": "Mean Visual Injury (%)-21 Days After Application FIMMI", "setting": "[7]; 2.19 g ae/ha", "value": 0, "unit": "%"},
      {"measurement": "Mean Visual Injury (%)-21 Days After Application FIMMI", "setting": "[7]; 4.38 g ae/ha", "value": 10, "unit": "%"},
      {"measurement": "Mean Visual Injury (%)-21 Days After Application FIMMI", "setting": "[7]; 8.75 g ae/ha", "value": 36, "unit": "%"},
      {"measurement": "Mean Visual Injury (%)-21 Days After Application FIMMI", "setting": "[7]; 17.5 g ae/ha", "value": 73, "unit": "%"},
      {"measurement": "Mean Visual Injury (%)-21 Days After Application FIMMI", "setting": "[7]; 35 g ae/ha", "value": 100, "unit": "%"},
      {"measurement": "Mean Visual Injury (%)-21 Days After Application FIMMI", "setting": "[7]; 70 g ae/ha", "value": 100, "unit": "%"},
      {"measurement": "GR50 FIMMI", "setting": "[7]; [9]", "value": 10.3, "unit": "g ae/ha"},
      {"measurement": "GR90 FIMMI", "setting": "[7]; [10]", "value": 29.7, "unit": "g ae/ha"},
      {"measurement": "Mean Visual Injury (%)-21 Days After Application ECHOR", "setting": "[8]; 2.19 g ae/ha", "value": 0, "unit": "%"},
      {"measurement": "Mean Visual Injury (%)-21 Days After Application ECHOR", "setting": "[8]; 4.38 g ae/ha", "value": 0, "unit": "%"},
      {"measurement": "Mean Visual Injury (%)-21 Days After Application ECHOR", "setting": "[8]; 8.75 g ae/ha", "value": 8, "unit": "%"},
      {"measurement": "Mean Visual Injury (%)-21 Days After Application ECHOR", "setting": "[8]; 17.5 g ae/ha", "value": 21, "unit": "%"},
      {"measurement": "Mean Visual Injury (%)-21 Days After Application ECHOR", "setting": "[8]; 35 g ae/ha", "value": 89, "unit": "%"},
      {"measurement": "Mean Visual Injury (%)-21 Days After Application ECHOR", "setting": "[8]; 70 g ae/ha", "value": 95, "unit": "%"},
      {"measurement": "GR50 ECHOR", "setting": "[8]; [9]", "value": 21.2, "unit": "g ae/ha"},
      {"measurement": "GR90 ECHOR", "setting": "[8]; [10]", "value": 59.0, "unit": "g ae/ha"}
    ]}
  ]
}
